Data from patent US10815212B2, “Cytotoxin compounds and methods of isolation” (priority 2004, dated 2020).

Assays:
[1] = Field-based feeding-deterrent assays
[2] = system: National Cancer Institute (NCI) 60 cell line panel
LOX IMVI = experiment: cells; settings: Homo sapiens, read-out: LC50
HCC-2998 = experiment: cells; settings: Homo sapiens, HCC 2998, read-out: LC50
[3] = system: National Cancer Institute (NCI) 60 cell line panel; experiment: cells; settings: read-out: LC50
RXF 393 = experiment: cells; settings: Homo sapiens, RXF 393, read-out: LC50
M14 = experiment: cells; settings: Homo sapiens, M14, read-out: LC50
SK-MEL-5 = experiment: cells; settings: Homo sapiens, SK-MEL-5, read-out: LC50

## C/C(C=O)=C\C(C)C1C/C(C)=C/C=C/CCC(OC(N)=O)C(O)/C=C/C(O)CCC/C=C/C(=O)O1 (stereo not shown) [Palmerolide E]
[1]
  bioactivity in field-based feeding-deterrent assays: displayed bioactivity
[2]; NCI 60 cell line bioassay
  activity/potency relative to palmerolide A (in words): reduced activity

## CC(C)=CC(=O)N/C=C/C(C)=C/C(C)C1C/C(C)=C/C=C/CCC(OC(N)=O)C(O)/C=C/C(O)CCC/C=C/C(=O)O1 (stereo not shown) [Palmerolide A]
LOX IMVI
  CC50: 9.8 µM
[1]
  bioactivity in field-based feeding-deterrent assays: displayed bioactivity
HCC-2998
  CC50: 6.5 µM
[3]
  CC50: > 10 µM
RXF 393
  CC50: 6.5 µM
UACC-62
  cytotoxicity (in words): displays cytotoxicity
M14
  CC50: 0.076 µM
SK-MEL-5
  CC50: 6.8 µM
[2]; most sensitive cells relative to other cell lines tested
  selectivity index among tested cell lines: 10^3

## C=C(C)C/C(C)=C\C(=O)N/C=C/C(C)=C/C(C)C1C/C(C)=C/C=C/CCC(OC(N)=O)C(O)/C=C/C(O)CCC/C=C/C(=O)O1 (stereo not shown) [Palmerolide D]
[1]
  bioactivity in field-based feeding-deterrent assays: displayed bioactivity

## CC(C)=CC(=O)N/C=C/C(C)=C/C(C)C1C/C(C)=C/C=C/CCCC(OC(N)=O)C(O)C(O)/C=C/CC/C=C/C(=O)O1 (stereo not shown) [Palmerolide C]
[1]
  bioactivity in field-based feeding-deterrent assays: displayed bioactivity
